Measurements as given in US6469028B1, “Synthesis and use of retinoid compounds having negative hormone and/or anatgonist activities” (Allergan, Inc., priority 1995, dated 2002).

Tests used:
RXRs = assay: Affinity for the RXRs; format: binding
RAR-γ-VP-16 = RAR-γ-VP-16 activity at the ΔMTV-TREp-Luc reporter; format: cell-based
Source text: We have also obtained results which support conclusions identical to those presented under Example 11 by employing RAR-γ-VP-16 and expression constructs and the ΔMTV-TREp-Luc reporter plasmid instead of the RAR-γ-VP-16 and ER-RXR-α expression constructs in combination with the ERE-tk-Luc reporter plasmid. […] Therefore, AGN 193109 repressed RAR-γ-VP-16 activity when this chimeric receptor was directly bound to a retinoic acid receptor response element instead of indirectly bound to an estrogen response element in the promoter region of the reporter plasmid. […] Instead, the critical feature embodied by an experimental system useful for identifying retinoid negative hormones involves detecting the ability of a compound to repress the activity of an RAR engineered to contain a constitutive transcription activation domain.

[1] = system: RAR-γ-VP-16 with ER-RXR-α
[2] = system: TPA-induced AP-1 activity; assay: Example 15: anti-AP-1 activity, Str-AP1-CAT in HeLa cells; format: cell-based
Experimental: HeLa cells were transfected with 1 μg of Str-AP1-CAT using LIPOFECTAMINE according to the method described by Nagpal et al. in J. Biol. Chem. 270:923 (1995). Transfected cells were treated with AGN 193109 alone (10^−9 to 10^−7 M), 1,25-dihydroxyvitamin D3 alone (10^−12 to 10^−7 M) or 1,25-dihydroxyvitamin D3 (10^−12 to 10^−7 M) in the presence of 10^−8 M AGN 193109.

[3] = system: 1,25-dihydroxyvitamin D3-dependent gene expression; assay: Example 14: 1,25-dihydroxyvitamin D3 transactivation, MTV-VDRE-Luc in HeLa cells; format: cell-based; conditions: AGN 193109 10-100 nM coadministered
Experimental: Hela cells were transfected using the cationic liposome-mediated transfection procedure described by Feigner et al. in Proc. Natl. Acad. Sci. USA 84:7413 (1987). 5×10^4 cells were plated in 12-well multiwell plates and grown in DMEM supplemented with 10% FBS. Cells were cotransfected in serum-free medium using 2 μg/well of LIPOFECTAMINE reagent (Life Technologies, Inc.) with 0.7 μg of the reporter plasmid MTV-VDRE-Luc, containing two copies of the 1,25-dihydroxyvitamin D3 response element [NT] ID NO:4) from the mouse osteopontin gene (Ferrara et al. J. Biol. Chem. 269:2971 (1994)) ligated into the reporter plasmid ΔMTV-Luc (Heyman et al. in Cell 68:397 (1992)), and 0.3 μg of the plasmid pGEM3Z (Pharmacia, Inc.) as carrier DNA to bring the final concentration of DNA to 1.0 μg per well. After six hours of transfection, cells were fed with growth medium containing charcoal extracted FBS at a final concentration of 10%. […] Luciferase activity was measured as described above. This experimental system allowed a convenient method of monitoring and quantitating 1,25-dihydroxyvitamin D3-dependent gene expression.

CaSki cell tumors = assay: Example 22: CaSki cell tumor growth in nude mice; format: in vivo; conditions: 20 μMol/kg AGN 193109 in corn oil daily, intragastric
Experimental: 1×10^6 CaSki cells are injected into each of a panel of nude mice. Tumor formation is assessed using techniques that will be familiar to one having ordinary skill in the art. After injection, mice are randomly divided into control and test groups. The control group receives a placebo. The test group is administered with AGN 193109. Animals administered with the placebo receive intragastric intubation of corn oil. The test animals receive 20 μMol/kg AGN 193109 in corn oil daily for the period of the treatment. Tumor volume is measured in […] using graduated calipers. Tumor volume is plotted as function of time.

[4] = Example 3: recovery from preexisting retinoid toxicity (body weight); format: in vivo, mice
Experimental: Groups of these same mice (n=5) were then treated topically either with vehicle or AGN 193109 in vehicle (4 ml/kg) daily for 3 consecutive days beginning on day 3. Mice were weighed on days 1-5 and on day 8. Body weights are expressed as the mean±SD. Means were compared statistically using an unpaired, two-tailed t-test. Differences were considered significant at P<0.05.

[5] = system: retinal pigment epithelium (RPE) cells; assay: Example 19: proliferation of primary retinal pigment epithelium cultures; format: cell-based, human
Experimental: Primary cultures of human retinal pigment epithelium (RPE) were established according to the method described by Campochiaro et al. in Invest. Opthal & Vis. Sci. 32:65 (1991). 5×10^4 cells were plated in 16-mm wells of 24-well multiwell plates in DMEM (Gibco) containing 5% FBS. […] Cells were fed with fresh media containing the appropriate concentrations of these compounds every two days for a total of five days of treatment. Cells were removed from the plates by gentle digestion with trypsin and the number of cells was counted with an electronic cell counter.
AGN 193109 was tested for its ability to potentiate the anti-proliferative effect of 13-cis retinoic acid (13-cis RA) in primary RPE cultures using conditions and techniques to measure RPE cell proliferation described above. […] More particularly, 13-cis RA is useful in the treatment of several disease states, including acne (Peck et al. N. Engl. J. Med. 300:329 (1977); Jones et al. Br. J. Dermatol. 108:333 (1980)), and squamous cell carcinoma of the skin and cervix in combination treatment with interferon 2α (Lippman et al. J. Natl. Cancer Inst. 84:241 (1992); Moore et al. Seminars in Hematology 31:31 (1994)).
We next tested the ability of AGN 193109 to potentiate the activities of other nuclear receptor hormones in primary RPE cell cultures. Dexamethasone, a synthetic glucocorticoid receptor agonist, is one member of a class of compounds that have been used clinically for their potent anti-inflammatory and immunosuppressive properties. Thyroid hormone (T3; […]) is a natural thyroid hormone receptor agonist used primarily for hormone replacement therapy in the treatment of hypothyroidism.

[6] = topical AGN 191183 0.13 mg/kg/d days 1-2, then topical AGN 193109 days 3-5, mean±SD

Question: For `Cc1ccc(C2=CCC(C)(C)c3ccc(C#Cc4ccc(C(=O)O)cc4)cc32)cc1` [Compound 60, 4-[(5,6-dihydro-5,5-dimethyl-8-(4-methylphenyl)-2-naphthalenyl)ethynyl]benzoic acid], which “affinity for the RXRs” value (RXRs) is on record?
Answer: The value was “no measurable affinity”.

Question: And the “RAR-γ-VP-16 activity at the ΔMTV-TREp-Luc reporter” value (RAR-γ-VP-16)?
Answer: Its value is “inhibited”.

Question: And the luciferase activity readings ([1]; AGN 193109 at 10^−8−10^−6 M (maximal inhibition))?
Answer: The luciferase activity readings was “approximately 16,000 rlu”.

Question: What about the “concentration of maximal inhibition of luciferase activity” value ([1]; cells cotransfected with ER-RXR-α and RAR-γ-VP-16) of the same molecule?
Answer: Its value is “approximately 10^−8 M”.

Question: And the “luciferase activity of triple transfectants” value ([1]; no other retinoid added, 18 hours)?
Answer: Its value is “dose dependent decrease in luciferase activity”.

Question: And the anti-AP-1 activity ([2]; AGN 193109 alone, 10^−9 to 10^−7 M)?
Answer: Its anti-AP-1 activity is “no detectable anti-AP-1 activity”.

Question: What about the “anti-AP-1 activity of 1,25-dihydroxyvitamin D3” value ([2]; in the presence of 10^−8 M AGN 193109) of the same molecule?
Answer: The value was “anti-AP-1 activity was detectable at 10^−10 and 10^−9 M 1,25-dihydroxyvitamin D3”.

Question: And the “increase in activity of 1,25-dihydroxyvitamin D3” value [3]?
Answer: The value was “approximately 10 fold”.

Question: And the tumor growth rate (CaSki cell tumors)?
Answer: The tumor growth rate was “tumors which are significantly reduced in their growth rate”.

Question: And the “body weight relative to vehicle treatment” value ([4]; after AGN 191183-induced weight loss, t-test, P<0.05)?
Answer: Its value is “significantly increased body weight relative to vehicle treatment on days 4 and 5”.

Question: And the “Body Weight (g) DAY 1” value [4, 6]?
Answer: The value was 23.9 ± 1.0 g.

Question: And the “Body Weight (g) DAY 2” value [4, 6]?
Answer: The value was 23.5 ± 1.2 g.

Question: What about the “Body Weight (g) DAY 3” value [4, 6] of the same molecule?
Answer: Its value is 21.4 ± 0.6 g.

Question: And the “Body Weight (g) DAY 4” value [4, 6]?
Answer: Its value is 22.2 ± 0.7 g.

Question: What about the “Body Weight (g) DAY 5” value [4, 6] of the same molecule?
Answer: The value was 22.8 ± 0.8 g.

Question: What about the “Body Weight (g) DAY 8” value [4, 6] of the same molecule?
Answer: The value was 25.0 ± 1.1 g.

Question: What about the “enhancement of the antiproliferative activity of ATRA” value ([5]; 10^−10 M ATRA with 10^−7 M AGN 193109 equals 10^−8 M ATRA alone) of the same molecule?
Answer: The value was “approximately 100 fold”.

Question: What about the “potency of 13-cis RA in repression of RPE cell proliferation” value ([5]; AGN 193109 10^−8 or 10^−6M with 13-cis RA 10^−12 to 10^−6M) of the same molecule?
Answer: The value was “dramatically increased the potency of 13-cis RA”.

Question: And the “growth rate of the RPE cells” value ([5]; AGN 193109 alone, 10^−10 to 10^−6 M)?
Answer: The value was “did not substantially alter the growth rate of the RPE cells”.

Question: And the RPE cell proliferation ([5]; dexamethasone 10^−11 to 10^−6M with 10^−8 or 10^−6M AGN 193109)?
Answer: The RPE cell proliferation was “repressed RPE cell proliferation to an extent that approximated the inhibition caused by treatment with ATRA”.

Question: What about the RPE cell proliferation ([5]; thyroid hormone 10^−11 to 10^−6M with AGN 193109 10^−8 or 10^−6M) of the same molecule?
Answer: Its RPE cell proliferation is “inhibited RPE cell proliferation in a thyroid hormone dependent manner”.
